From patent publication US20240261367A1, “CYCLIC PEPTIDE IMMUNOMODULATORS” (priority 2021, published 2024)

Biological target: T1, PD-1/PD-L1 (Homo sapiens, UniProt Q9NZQ7)
T1 construct: TVMV protease site linker (C); made in house; host or cells: HEK293T cells
Experiment: PD-1/PD-L1 Homogenous Time-Resolved Fluorescence (HTRF) binding assay
Details: PD-L1-His (10 nM) pre-incubated with inhibitor 15 m, then PD-1-Ig (20 nM)
Source text: Methods for Testing the Ability of Macrocyclic Peptides to Compete for the Binding of PD-1 to PD-L1 Using Homogenous Time-Resolved Fluorescence (HTRF) Binding Assays
The ability of the compounds of formula (I) to bind to PD-L1 was investigated using a PD-1/PD-L1 Homogenous Time-Resolved Fluorescence (HTRF) binding assay.
Homogenous Time-Resolved Fluorescence (HTRF) Binding Assay
The interaction of PD-1 and PD-L1 can be assessed using soluble, purified preparations of the extracellular domains of the two proteins. The PD-1 and PD-L1 protein extracellular domains were expressed as fusion proteins with detection tags, for PD-1, the tag was the Fc portion of Immunoglobulin (PD-1-Ig) and for PD-L1 it was the 6 histidine motif (PD-L1-His). All binding studies were performed in an HTRF assay buffer consisting of dPBS supplemented with 0.1% […] bovine serum albumin and 0.05% (v/v) Tween-20. […] HTRF detection was achieved using europium crypate-labeled anti-Ig (1 nM final) and allophycocyanin (APC) labeled anti-His (20 nM final). Antibodies were diluted in HTRF detection buffer and 5 μl was dispensed on top of the binding reaction. The reaction mixture was allowed to equilibrate for 30 minutes and the resulting signal (665 nm/620 nm ratio) was obtained using an EnVision fluorometer. Additional binding assays were established between the human proteins PD-1-Ig/PD-L2-His (20 & 5 nM, respectively) and CD80-His/PD-L1-Ig (100 & 10 nM, respectively).
Recombinant Proteins: Human PD-1 (25-167) with a C-terminal human Fc domain of immunoglobulin G (Ig) epitope tag [hPD-1 (25-167)-3S-IG] and human PD-L1 (18-239) with a C-terminal His epitope tag [hPD-L1(18-239)-TVMV-His] were expressed in HEK293T cells and purified sequentially by ProteinA affinity chromatography and size exclusion chromatography. Human PD-L2-His and CD80-His was obtained through commercial sources.
Table 1 lists the IC50 values for representative examples of this disclosure measured in the PD-1/PD-L1 Homogenous Time-Resolved Fluorescence (HTRF) binding assay.

T1 sequence (Q9NZQ7 18-239): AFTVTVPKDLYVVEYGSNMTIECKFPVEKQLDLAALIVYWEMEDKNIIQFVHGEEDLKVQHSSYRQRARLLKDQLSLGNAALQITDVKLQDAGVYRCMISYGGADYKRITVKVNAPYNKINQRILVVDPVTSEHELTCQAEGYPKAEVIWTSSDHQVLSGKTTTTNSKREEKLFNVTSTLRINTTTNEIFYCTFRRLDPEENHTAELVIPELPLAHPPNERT

SMILES | IC50
CCCC[C@H]1C(=O)N(C)[C@@H](CCCC)C(=O)N[C@@H](CC(C)C)C(=O)N[C@H](C(=O)NCC(=O)N[C@@H](Cc2cn(CCOCCOCCOCCOCCOCCOCCOCCOCCOCCOCCOCCNC(=O)CC[C@H](NC(=O)CCCCCCCCCCCCCCCCC(=O)O)C(=O)OCC)nn2)C(=O)O)CSCC(=O)N[C@@H](Cc2ccc(O)cc2)C(=O)N(C)[C@@H](C)C(=O)N[C@@H](CC(N)=O)C(=O)N2CCC[C@H]2C(=O)N[C@@H](CN)C(=O)N[C@@H](CC(C)C)C(=O)N2C[C@H](O)C[C@H]2C(=O)N[C@@H](Cc2c[nH]c3ccccc23)C(=O)N[C@@H](CCN)C(=O)N[C@@H](CC2=CC(CC(=O)O)c3ccccc32)C(=O)N1C (some centres unmarked) [Example 1024] | 13 nM
CCCC[C@H]1C(=O)N(C)[C@@H](CCCC)C(=O)N[C@@H](CC(C)C)C(=O)N[C@H](C(=O)NCC(=O)N[C@@H](Cc2cn(CCOCCOCCOCCOCCOCCOCCOCCOCCOCCOCCOCCNC(=O)CC[C@H](NC(=O)CCCCCCCCCCCCCCCCC(=O)O)C(=O)O)nn2)C(=O)O)CSCC(=O)N[C@@H](Cc2ccc(O)cc2)C(=O)N(C)[C@@H](C)C(=O)N[C@@H](CC(N)=O)C(=O)N2CCC[C@H]2C(=O)N[C@@H](CNC(=O)OC)C(=O)N[C@@H](CC(C)C)C(=O)N2C[C@H](O)C[C@H]2C(=O)N[C@@H](Cc2c[nH]c3ccccc23)C(=O)N[C@@H](CCN)C(=O)N[C@@H](CC2=CC(CC(=O)O)c3ccccc32)C(=O)N1C (some centres unmarked) [Example 1016] | 13 nM
CCCC[C@H]1C(=O)N(C)[C@@H](CCCC)C(=O)N[C@@H](CC(C)C)C(=O)N[C@H](C(=O)NCC(=O)N[C@@H](Cc2cn(CCOCCOCCOCCOCCOCCOCCOCCOCCOCCOCCOCCNC(=O)CC[C@H](NC(=O)CCCCCCCCCCCCCCCCC(=O)O)C(=O)O)nn2)C(=O)O)CSCC(=O)N[C@@H](Cc2ccc(O)cc2)C(=O)N(C)[C@@H](C)C(=O)N[C@@H](CC(N)=O)C(=O)N2CCC[C@H]2C(=O)N[C@@H](CNCC(O)C(O)C(O)C(O)C(O)CO)C(=O)N[C@@H](CC(C)C)C(=O)N2C[C@H](O)C[C@H]2C(=O)N[C@@H](Cc2c[nH]c3ccccc23)C(=O)N[C@@H](CCN)C(=O)N[C@@H](Cc2cn(CC(=O)O)c3ccccc23)C(=O)N1C (some centres unmarked) [Example 8001] | 12 nM
CCCC[C@H]1C(=O)N(C)[C@@H](CCCC)C(=O)N[C@@H](CC(C)C)C(=O)N[C@H](C(=O)NCC(=O)N[C@@H](Cc2cn(CCOCCOCCOCCOCCOCCOCCOCCOCCOCCOCCOCCNC(=O)CC[C@H](NC(=O)CCCCCCCCCCCCCCCCC(=O)O)C(=O)O)nn2)C(=O)O)CSCC(=O)N[C@@H](Cc2ccc(O)cc2)C(=O)N(C)[C@@H](C)C(=O)N[C@@H](CC(N)=O)C(=O)N2CCC[C@H]2C(=O)N[C@@H](CNC(=O)OCc2oc(=O)oc2C)C(=O)N[C@@H](CC(C)C)C(=O)N2C[C@H](O)C[C@H]2C(=O)N[C@@H](Cc2c[nH]c3ccccc23)C(=O)N[C@@H](CCN)C(=O)N[C@@H](CC2=CC(CC(=O)O)c3ccccc32)C(=O)N1C (some centres unmarked) [Example 1021] | 27 nM
CCCC[C@H]1C(=O)N(C)[C@@H](CCCC)C(=O)N[C@@H](CC(C)C)C(=O)N[C@H](C(=O)NCC(=O)N[C@@H](Cc2cn(CCOCCOCCOCCOCCOCCOCCOCCOCCOCCOCCOCCNC(=O)CC[C@H](NC(=O)CCCCCCCCCCCCCCCCC(=O)O)C(=O)O)nn2)C(=O)OC)CSCC(=O)N[C@@H](Cc2ccc(O)cc2)C(=O)N(C)[C@@H](C)C(=O)N[C@@H](CC(N)=O)C(=O)N2CCC[C@H]2C(=O)N[C@@H](CN)C(=O)N[C@@H](CC(C)C)C(=O)N2C[C@H](O)C[C@H]2C(=O)N[C@@H](Cc2c[nH]c3ccccc23)C(=O)N[C@@H](CCN)C(=O)N[C@@H](Cc2cn(CC(=O)OC)c3ccccc23)C(=O)N1C [Example 3002] | 12 nM
